Source: patent publication US9271978B2 (Zenith Epigenetics Corp., priority 2012, dated 2016)

What was measured:
[1] = tested on: human AML MV-4-11 (CRL-9591) cells; experiment: Inhibition of cell proliferation in MV4-11 cells; format: cell-based; set-up: key: Active: Compounds with an IC50 value less than 30 μM were deemed to be active.; Not Active: Compounds with an IC50 value less than 30 μM were deemed to be active; conditions: human AML MV-4-11 cells, 72 h; active = IC50 <30 μM
Summary of the method: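 Exponentially growing MV-4-11 cells (5×10^4/well) were treated immediately with two-fold dilutions of compound from 30 μM to 0.2 μM, in triplicate, for 72 h at 37° C, 5% CO2. Viability was measured by MTS absorbance at 490 nm after 3–4 h. Proliferation relative to DMSO after blank correction gave IC50.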

c-myc = experiment: Inhibition of c-myc expression in MV4-11 cells (mRNA, real-time PCR); format: cell-based; set-up: key: Active: Compounds with an IC50 value less than 30 μM were deemed to be active.; Not Active: Compounds with an IC50 value less than 30 μM were deemed to be active; conditions: Human AML MV4-11 cells, 3 h incubation
Summary of the method: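 MV4-11 cells (2.5×10^4) treated with compound or 0.1% DMSO for 3 h at 37 °C. c-myc mRNA measured by RT real-time PCR duplexed with cyclophilin. IC50 from dose–response curve.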

hIL-6 mRNA = experiment: Inhibition of hIL-6 mRNA transcription in U937 cells; format: cell-based, human; set-up: key: Active: Compounds with an IC50 value less than 30 μM were deemed to be active.; Not Active: Compounds with an IC50 value less than 30 μM were deemed to be active; conditions: LPS stimulation, active = IC50 <30 μM
Summary of the method: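 U937 cells differentiated 3 days with 60 ng/mL PMA, pretreated 1 h with compound, then stimulated with 1 ug/mL E. coli LPS for 3 h at 37° C. hIL-6 mRNA quantified by one-step qRT-PCR, Ct normalized to internal control, expressed as fold induction relative to control.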

ApoA-I mRNA = experiment: Up-regulation of hApoA-1 mRNA transcription in Huh7 cells; format: cell-based, human; set-up: key: Active: Compounds with an EC170 value less than 30 μM were deemed to be active; conditions: 48 h treatment, ApoA-I mRNA by real-time PCR, Active = EC170 less than 30 μM
Summary of the method: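 Huh7 cells treated with compound for 48 h. ApoA-I mRNA was then quantified in captured mRNA by one-step real-time RT-PCR. Fold induction calculated from Ct values relative to the matching DMSO control; EC170 is the concentration for 170% of control expression.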

[2] = target: T1, second bromodomain of Brd2 (BRD2(2)) (Homo sapiens, UniProt P25440); experiment: Inhibition of tetra-acetylated histone H4 binding to Brd2 bromodomain 2 (TR-FRET); set-up: key: Active: Compounds with an IC50 value less than 30 μM were deemed to be active.; Not Active: Compounds with an IC50 value less than 30 μM were deemed to be active; conditions: tetra-acetylated histone H4 peptide, active = IC50 <30 μM
T1 construct: made in house; host or cells: E. coli BL21 (DE3)
Summary of the method: (§1)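 N-terminally His-tagged bromodomains (200 nM), expressed in E. coli, were incubated with biotinylated tetra-acetylated histone H4 peptide (25-50 nM), Eu-cryptate streptavidin and XL665 anti-His antibody in HEPES pH 7.4 buffer with KF, 0.2% DMSO, 2 h at room temperature. Inhibition read as decreased 665/620 nm TR-FRET; IC50 from dose-response curves.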

[3] = target: T2, Brd4 bromodomain 1 (BRD4(1)) (Homo sapiens, UniProt O60885); experiment: Inhibition of tetra-acetylated histone H4 binding to Brd4 bromodomain 1 (TR-FRET); set-up: key: Active: Compounds with an IC50 value less than 30 μM were deemed to be active.; Not Active: Compounds with an IC50 value less than 30 μM were deemed to be active; conditions: tetra-acetylated histone H4 peptide, active = IC50 <30 μM
T2 construct: Illustrative results with the first bromodomain of Brd4; made in house; host or cells: E. coli BL21 (DE3)
Summary of the method: as §1

T1 sequence (P25440 344-453 limits assumed): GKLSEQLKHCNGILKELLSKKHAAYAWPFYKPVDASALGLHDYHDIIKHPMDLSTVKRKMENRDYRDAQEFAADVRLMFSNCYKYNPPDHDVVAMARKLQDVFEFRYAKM

Compound	Cell Proliferation activity (IC50 <30 μM) [1]	c-myc activity (IC50 <30 μM) (c-myc)	IL-6 activity (IC50 <30 μM) (hIL-6 mRNA)	ApoA-1 activity (EC170 <30 μM) (ApoA-I mRNA)	FRET activity (IC50 <30 μM) BRD2(2) [2]	FRET activity (IC50 <30 μM) BRD4(1) [3]
Cc1noc(C)c1-c1ccc(=O)n(Cc2ccc(C(N)=O)cc2)c1 [Example 13, 4-((5-(3,5-Dimethylisoxazol-4-yl)-2-oxopyridin-1(2H)-yl)methyl)benzamide]	Not Active	Not Active	Active	Active	Active	Active
Cc1noc(C)c1-c1ccc(=O)n(Cc2ccccc2)n1 [Example 14, 2-Benzyl-6-(3,5-dimethylisoxazol-4-yl)pyridazin-3(2H)-one]	Active	Not Active	Active	Active	Active	Active
COc1cc(-c2ccc(=O)n(Cc3cccc(NC(C)=O)c3)n2)cc(OC)c1OC [Example 17, N-(3-((6-Oxo-3-(3,4,5-trimethoxyphenyl)pyridazin-1(6H)-yl)methyl)phenyl)acetamide]	Not Active	Active	Active	Active	Active	Active
Cc1noc(C)c1-c1ccc(=O)n(C(C)c2ccccc2)n1 (stereo not drawn) [Example 19, 6-(3,5-Dimethylisoxazol-4-yl)-2-(1-phenylethyl)pyridazin-3(2H)-one]	Active	Active	Active	Active	Active	Active
CCC(c1ccccc1)n1cc(-c2c(C)noc2C)ccc1=O (stereo not drawn) [Example 43, 5-(3,5-Dimethylisoxazol-4-yl)-1-(1-phenylpropyl)pyridin-2(1H)-one]	Active	Active	Active	Active	Active	Active
Cc1noc(C)c1-c1ccc(=O)n(Cc2cccc3cccnc23)c1 [Example 47, 5-(3,5-Dimethylisoxazol-4-yl)-1-(quinolin-8-ylmethyl)pyridin-2(1H)-one]	Active	Active	Active	Active	Active	Active
Cc1noc(C)c1-c1ccc(=O)n(CC2CCC2)c1 [Example 49, 1-(Cyclobutylmethyl)-5-(3,5-dimethylisoxazol-4-yl)pyridin-2(1H)-one]	Active	Active	Active	Active	Active	Active
Cc1noc(C)c1-c1ccc(=O)n(Cc2cccc(C(F)F)c2)c1 [Example 50, 1-(3-(Difluoromethyl)benzyl)-5-(3,5-dimethylisoxazol-4-yl)pyridin-2(1H)-one]	Active	Active	Active	Active	Active	Active
Cc1noc(C)c1-c1ccc(=O)n(CCOc2ccccc2)c1 [Example 51, 5-(3,5-Dimethylisoxazol-4-yl)-1-(2-phenoxyethyl)pyridin-2(1H)-one]	Not Active	Not Active	Active	Active	Active	Active
COc1cc(-c2ccc(=O)n(Cc3ccccc3)c2)cc(OC)c1OC [Example 52, 1-Benzyl-5-(3,4,5-trimethoxyphenyl)pyridin-2(1H)-one]	Not Active	Not Active	Active	Active	Active	Active
COc1cc(-c2ccc(=O)n(Cc3ccccc3C#N)c2)cc(OC)c1OC [Example 53, 2-((2-Oxo-5-(3,4,5-trimethoxyphenyl)pyridin-1(2H)-yl)methyl)benzonitrile]	Active	Not Active	Active	Active	Active	Active
COc1cc(Nc2ccc(=O)n(Cc3ccccc3)n2)cc(OC)c1OC [Example 54, 2-Benzyl-6-((3,4,5-trimethoxyphenyl)amino)pyridazin-3(2H)-one]	Active	Active	Active	Active	Active	Active
Cc1noc(C)c1-c1ccc(=O)n(Cc2ccc(Cl)cn2)c1 [Example 55, 1-((5-Chloropyridin-2-yl)methyl)-5-(3,5-dimethylisoxazol-4-yl)pyridin-2(1H)-one]	Active	Active	Active	Active	Active	Active
COc1ccc(Nc2ccc(=O)n(Cc3ccccc3)n2)cc1OC [Example 60, 2-Benzyl-6-((3,4-dimethoxyphenyl)amino)pyridazin-3(2H)-one]	Not Active	Not Active	Active	Active	Active	Active
Cc1noc(C)c1-c1cc(C)c(=O)n(Cc2ccccc2)c1 [Example 66, 1-Benzyl-5-(3,5-dimethylisoxazol-4-yl)-3-methylpyridin-2(1H)-one]	Active	Active	Active	Active	Active	Active
